Results: patent US20230406840A1, “N-(2-(3-CYANO-2-AZABICYCLO[3.1.0]HEXAN-2-YL)-2-OXOETHYL)QUINOLINE-4-CARBOXAMIDES” (AstraZeneca AB, priority 2022, published 2023)

Experiments:
hFAP = hFAP (Homo sapiens (Human), UniProt Q12884);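 also: fluorescence read after incubating enzyme with substrate at room temperature, IC50 fitted from percent inhibition against log concentration with a one-site model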
Protocol: Compounds were tested in a biochemical inhibition assay using hFAP enzyme at 0.24 nM FAC (Proteros, 38-760 (PR-0071)) and the substrate Ala-Pro-AMC (ARI-3144) at 20 μM FAC. 384 low volume black plates (Greiner #784076) were used. 4 μL, 0.48 nM enzyme solution (100 mM Tris HCl, 100 mM NaCl, 0.05% Chaps, pH 7.4) was added to 40 nL compounds (in DMSO) at 10 CR, 3-fold dilution series from 50 μM FAC. Plates were incubated for 15 min at rt in dark. 4 μL, 40 μM substrate solution (100 mM Tris HCl, 100 mM NaCl, 0.05% Chaps, pH 7.4) was added to each well. Plates were centrifuged at 1000 rpm and incubated for 30 min at rt in dark. The plates were read on a PHERAstar® reader with excitation 340 nm and emission 460 nm. Data were analyzed in Genedata Screener®. IC50 values were determined by plotting % inhibition versus log compound concentration and using a one site dose response model.

FAP Mouse Plasma = FAP Mouse Plasma (Mus musculus (Mouse), UniProt P97321); assay: FAP plasma inhibition assay, mouse plasma; format: biochemical; conditions: mouse plasma dilution 1:67, Ala-Pro-AMC 75 μM; n = 1
Protocol: (§1) This assay was adapted from the method described in Example 53 for detection of FAP target engagement enzyme activity in plasma. Plasma (anticoagulant K2EDTA) was used as the enzyme source: Human plasma (Pooled from AZ Biobank) and Mouse plasma (AZ AST Biobank). 384-Well black fluotrack PS plates (Greiner 781076) were used. 20 μL diluted plasma (Human plasma dilution 1:40, Mouse plasma dilution 1:67) in buffer (PBS, 0.1% BSA) was added to 0.6 μL compounds (in DMSO). Compounds were tested using 10 CR, 3-fold dilution series from 500 nM FAC. Two replicates for each assay point were run on the same plate. A fluorescence blank read was taken before substrate addition. Substrate, Ala-Pro-AMC (ARI-3144) stock solution (20 mM in DMSO) was diluted in buffer (PBS, 0.1% BSA) to 150 μM concentration and 20 μL added giving 75 μM FAC. Plates were incubated for 40 min at rt in the dark. The plates were read on a Beckman Paradigm® reader with excitation 360 nm and emission 465 nm. Data were analyzed in Excel (IDBS XLfit Add-In) using a one site dose response model (4-parameter logistic fit). […] Raw data signals were normalized using 1.5% DMSO in diluted plasma as 0% control and 1.5% DMSO in buffer (no plasma) as 100% inhibitor control.

[1] = biological target: human Fibroblast activation protein alpha (hFAP) (Homo sapiens (Human), UniProt Q12884); assay: hFAP inhibition assay (tight binders); format: biochemical; conditions: tight-binder format, Ala-Pro-AMC 20 μM, 2.5 h incubation; n = 1 or geometric mean (n = 5-10)
Protocol: Data were analyzed in Genedata Screener®.

[2] = biological target: Prolyl Oligopeptidase (hPREP) (Homo sapiens (Human), UniProt P48147); assay: hPREP inhibition assay; format: biochemical; conditions: hPREP 0.6 nM, Z-Gly-Pro-amino-methylcoumarin 50 μM; read-out: PREP IC50
How it was run: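 Recombinant human PREP at 0.6 nM final, with Z-Gly-Pro-AMC substrate at 50 μM final. Buffer: 25 mM Tris HCl pH 7.5, 250 mM NaCl, 0.01% Triton X-100, 5 mM glutathione. Incubated 20 min at rt in the dark; fluorogenic AMC release read.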

FAP Human Plasma = FAP Human Plasma (Homo sapiens (Human), UniProt Q12884); assay: FAP plasma inhibition assay, human plasma; format: biochemical; conditions: human plasma dilution 1:40, Ala-Pro-AMC 75 μM; n = 1
Protocol: as §1

[3] = biological target: FAP enzyme activity in mouse plasma (Mus musculus (Mouse), UniProt P97321); assay: FAP target engagement enzyme activity in mouse plasma after oral dosing; conditions: male C57Bl/6 mice, single oral dose 3 or 10 mg/kg; estimated from plasma exposure vs FAP activity, Imax fixed to 1; read-out: In vivo Mouse IC50
Protocol: The effect of test compound on FAP enzyme activity in mouse plasma was evaluated in an enzymatic assay using the Fibroblast Activation Protein alpha (FAP) specific fluorogenic substrate dipeptide-Coumarin, Ala-Pro-AMC, (ARI-3144). In this assay, FAP cleaves Ala-Pro-AMC to release free AMC which is measured as a fluorescent signal that correlates with enzyme activity.
Male C57Bl/6 mice (Charles River, Germany), 8 weeks of age, were single housed in a temperature-controlled room with a 12-hour light/dark cycle (06:00-18:00 light). The mice had ad libitum access to water and rodent chow diet (R70, Lactamin, Kimstad, Sweden), and were acclimated for 5 days upon arrival. After acclimation, all mice received a single oral dose of test compound (3 or 10 mg/kg). Blood samples for whole blood compound exposure measurements were taken at 0.25, 0.5, 1, 2, 4, 8 and 24 h post oral dosing. Samples were collected in EDTA capillary tubes (20 μL, K2E, REF 19.447) and were transferred to a 96-deep well plate (NUNC, Thermo Discher Scientific) and stored at −20° C. until further analyses were performed. […]
Recombinant human FAP (PB-17-1837, construct PL-17-0278, cd33-FAP (27-757)-6His, Mw85926 Da) was used as a standard for this assay. […] The plates were read on a Beckman Paradigm reader with excitation 360 nm and emission 465 nm. Fluorescence measurements were performed with kinetic read every 5 minutes for 60 min at room temperature. Data were analyzed in Excel (IDBS XLfit Add-In) using a Linear Regression (y=k*x+m) model to prepare a human recombinant FAP standard curve.
On the day of the assay, plasma was diluted (1:2) to 20 μL volume in buffer (PBS, 0.1% BSA) and 7.5 μL was transferred to the assay plate (384-well black, fluotrack PS, Greiner 781076). […] The plates were read on a Beckman Paradigm reader with excitation 360 nm and emission 465 nm. Fluorescence measurements were performed with kinetic read every 5 minutes for 60 minutes at room temperature. As noted above, FAP cleaves Ala-Pro-AMC to release free AMC which is measured as a fluorescent signal. […]

Kinetic solubility = format: physicochemical; conditions: kinetic from dmso stock
Protocol: Kinetic solubility was measured as described in Comput Aided Mol Des 2015, 29, 795.

Human Hepatocytes (hHep) = assay: Metabolic stability in human hepatocytes (hHep); format: in vitro ADME
Protocol: Metabolic stability in human hepatocytes was measured as described in Xenobiotica 2010, 40, 637.

Rat Hepatocytes (rHep) = assay: Metabolic stability in rat hepatocytes (rHep); format: in vitro ADME
Protocol: Metabolic stability in rat hepatocytes was measured as described in J Comput Aided Mol Des 2015, 29, 795.

[4] = biological target: human dipeptidylpeptidase 8 (hDPP8) (Homo sapiens (Human), UniProt Q6V1X1); assay: hDPP8 inhibition assay; format: biochemical; conditions: single concentration 10 μM; n = 1
Protocol: Compounds were tested in a biochemical inhibition assay using human dipeptidylpeptidase 8 (hDPP8) enzyme (BPS Bioscience, #80800) and the substrate Gly-Pro-amino-methylcoumarin (Enzo #BML-P189-0005) at 10 μM FAC. The enzymatic reactions were conducted in duplicate at rt for 20 min in 50 μL assay buffer (50 mM Tris, pH 7.5, 0.1% BSA). Compound solutions (in DMSO), were prepared in assay buffer ten-fold higher than the final concentration, and 5 μL of the dilution was added to a 50 μL reaction so that the compound concentration was 10 μM FAC and the concentration of DMSO was 1% in all wells. The plates were read on a PHERAstarPLUS (BMG) using kinetic mode with excitation 340 nm and emission 460 nm. Data were analyzed in Graph Pad Prism. Raw data signals were normalized using 1% DMSO as 0% control and no enzyme as 100% inhibitor control.

[5] = Metabolic stability in human liver microsomes (HLM); format: in vitro ADME
Protocol: Metabolic stability in HLM was measured as described in J Comput Aided Mol Des 2015, 29, 795.

[6] = biological target: human dipeptidylpeptidase 7 (hDPP7) (Homo sapiens (Human), UniProt Q9UHL4); assay: hDPP7 inhibition assay; format: biochemical; conditions: highest compound concentration 10 μM; n = 1
Protocol: Compounds were tested in a biochemical inhibition assay using human dipeptidylpeptidase 7 (hDPP7) enzyme (BPS Bioscience, #80070) and the substrate Ala-Pro-amino-methylcoumarin (BPS Bioscience, #80305) at 10 μM FAC. The enzymatic reactions were conducted in duplicate at rt for 20 min in 50 μL assay buffer (10 mM Tris-HCl, pH 7.4, 10 mM MgCl2, 1 mM MnCl2). Compound solutions (in DMSO) at 10 CR, 3-fold dilution series were prepared in assay buffer ten-fold higher than the final concentration, and 5 μL of the dilution was added to a 50 μL reaction so that the highest compound concentration was 10 μM FAC and the concentration of DMSO was 1% in all wells. The plates were read on a PHERAstarPLUS (BMG) using kinetic mode with excitation 340 nm and emission 460 nm. Data were analyzed in Graph Pad Prism. Raw data signals were normalized using 1% DMSO as 0% control and no enzyme as 100% inhibitor control.

[7] = biological target: human dipeptidylpeptidase 9 (hDPP9) (Homo sapiens (Human), UniProt Q86TI2); assay: hDPP9 inhibition assay; format: biochemical; conditions: highest compound concentration 10 μM; n = 1
Protocol: Compounds were tested in a biochemical inhibition assay using human dipeptidylpeptidase 9 (hDPP9) enzyme (R&D, #5419-SE-010) and the substrate Gly-Pro-amino-methylcoumarin (Enzo #BML-P189-0005) at 10 μM FAC. The enzymatic reactions were conducted in duplicate at rt for 30 min in 50 μL assay buffer (50 mM Tris, pH 7.5, 0.1% BSA). Compound solutions (in DMSO) at 10 CR, 3-fold dilution series were prepared in assay buffer ten-fold higher than the final concentration, and 5 μL of the dilution was added to a 50 μL reaction so that the highest compound concentration was 10 μM FAC and the concentration of DMSO was 1% in all wells. The plates were read on a PHERAstarPLUS (BMG) using kinetic mode with excitation 340 nm and emission 460 nm. Data were analyzed in Graph Pad Prism. […] Raw data signals were normalized using 1% DMSO as 0% control and no enzyme as 100% inhibitor control.

Sequence of Prolyl Oligopeptidase (hPREP) (P48147 whole entry): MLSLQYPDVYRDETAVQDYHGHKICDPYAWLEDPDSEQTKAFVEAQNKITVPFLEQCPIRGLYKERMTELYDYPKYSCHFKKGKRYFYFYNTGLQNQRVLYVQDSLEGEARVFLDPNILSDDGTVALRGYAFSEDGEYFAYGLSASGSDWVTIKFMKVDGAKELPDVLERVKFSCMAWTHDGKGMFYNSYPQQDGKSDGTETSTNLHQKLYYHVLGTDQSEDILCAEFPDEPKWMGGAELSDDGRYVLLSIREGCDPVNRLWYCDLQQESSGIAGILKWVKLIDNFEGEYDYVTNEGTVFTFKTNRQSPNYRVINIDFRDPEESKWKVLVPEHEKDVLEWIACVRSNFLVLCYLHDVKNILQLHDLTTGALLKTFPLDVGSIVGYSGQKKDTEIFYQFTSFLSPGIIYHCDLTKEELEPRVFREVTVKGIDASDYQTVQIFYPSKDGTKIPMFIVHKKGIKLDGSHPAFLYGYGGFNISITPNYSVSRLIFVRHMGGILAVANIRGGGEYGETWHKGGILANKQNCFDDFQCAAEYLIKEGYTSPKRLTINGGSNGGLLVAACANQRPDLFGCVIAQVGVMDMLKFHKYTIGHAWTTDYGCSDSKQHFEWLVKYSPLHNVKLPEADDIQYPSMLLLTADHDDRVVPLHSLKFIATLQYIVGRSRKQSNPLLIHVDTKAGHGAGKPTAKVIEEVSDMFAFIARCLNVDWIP
Sequence of FAP Mouse Plasma (P97321 24-761 limits assumed): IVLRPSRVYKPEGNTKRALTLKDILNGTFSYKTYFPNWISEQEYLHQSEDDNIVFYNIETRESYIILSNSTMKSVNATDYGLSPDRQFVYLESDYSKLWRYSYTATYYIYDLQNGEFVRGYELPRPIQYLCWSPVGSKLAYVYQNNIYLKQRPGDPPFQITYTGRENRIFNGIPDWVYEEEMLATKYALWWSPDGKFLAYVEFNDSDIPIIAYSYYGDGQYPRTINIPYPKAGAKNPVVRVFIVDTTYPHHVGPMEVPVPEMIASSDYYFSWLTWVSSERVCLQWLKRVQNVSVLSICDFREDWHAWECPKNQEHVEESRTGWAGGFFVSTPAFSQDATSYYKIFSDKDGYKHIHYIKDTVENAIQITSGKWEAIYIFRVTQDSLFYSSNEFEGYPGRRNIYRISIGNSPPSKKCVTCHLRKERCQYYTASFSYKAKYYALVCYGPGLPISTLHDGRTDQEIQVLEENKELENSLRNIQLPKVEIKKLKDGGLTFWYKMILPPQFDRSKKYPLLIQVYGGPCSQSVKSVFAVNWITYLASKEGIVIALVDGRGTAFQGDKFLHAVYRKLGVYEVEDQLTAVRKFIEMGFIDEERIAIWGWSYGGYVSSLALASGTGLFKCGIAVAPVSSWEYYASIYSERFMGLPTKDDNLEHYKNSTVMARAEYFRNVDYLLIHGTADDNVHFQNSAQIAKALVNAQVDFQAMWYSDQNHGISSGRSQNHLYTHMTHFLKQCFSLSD
Sequence of hFAP (Q12884 38-760): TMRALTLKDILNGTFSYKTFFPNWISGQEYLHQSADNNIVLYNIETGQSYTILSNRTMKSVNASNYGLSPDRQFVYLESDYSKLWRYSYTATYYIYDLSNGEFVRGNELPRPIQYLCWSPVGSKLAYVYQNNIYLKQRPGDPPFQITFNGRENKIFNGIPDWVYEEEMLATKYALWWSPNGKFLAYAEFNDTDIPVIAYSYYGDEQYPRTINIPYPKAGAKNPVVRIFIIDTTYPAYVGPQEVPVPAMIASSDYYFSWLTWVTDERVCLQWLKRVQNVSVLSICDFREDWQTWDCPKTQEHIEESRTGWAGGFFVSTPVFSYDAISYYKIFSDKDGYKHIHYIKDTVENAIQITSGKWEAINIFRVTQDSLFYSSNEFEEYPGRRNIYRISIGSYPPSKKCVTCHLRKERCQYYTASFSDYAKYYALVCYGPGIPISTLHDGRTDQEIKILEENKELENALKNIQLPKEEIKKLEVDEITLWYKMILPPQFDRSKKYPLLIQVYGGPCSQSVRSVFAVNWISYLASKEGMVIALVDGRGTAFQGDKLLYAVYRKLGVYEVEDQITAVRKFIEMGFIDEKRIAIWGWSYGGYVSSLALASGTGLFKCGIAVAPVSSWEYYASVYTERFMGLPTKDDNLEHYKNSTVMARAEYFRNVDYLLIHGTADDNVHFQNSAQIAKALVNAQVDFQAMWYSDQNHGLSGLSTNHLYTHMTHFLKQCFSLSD
Sequence of human Fibroblast activation protein alpha (hFAP) (Q12884 38-760): as above
Sequence of FAP Human Plasma (Q12884 24-760 limits assumed): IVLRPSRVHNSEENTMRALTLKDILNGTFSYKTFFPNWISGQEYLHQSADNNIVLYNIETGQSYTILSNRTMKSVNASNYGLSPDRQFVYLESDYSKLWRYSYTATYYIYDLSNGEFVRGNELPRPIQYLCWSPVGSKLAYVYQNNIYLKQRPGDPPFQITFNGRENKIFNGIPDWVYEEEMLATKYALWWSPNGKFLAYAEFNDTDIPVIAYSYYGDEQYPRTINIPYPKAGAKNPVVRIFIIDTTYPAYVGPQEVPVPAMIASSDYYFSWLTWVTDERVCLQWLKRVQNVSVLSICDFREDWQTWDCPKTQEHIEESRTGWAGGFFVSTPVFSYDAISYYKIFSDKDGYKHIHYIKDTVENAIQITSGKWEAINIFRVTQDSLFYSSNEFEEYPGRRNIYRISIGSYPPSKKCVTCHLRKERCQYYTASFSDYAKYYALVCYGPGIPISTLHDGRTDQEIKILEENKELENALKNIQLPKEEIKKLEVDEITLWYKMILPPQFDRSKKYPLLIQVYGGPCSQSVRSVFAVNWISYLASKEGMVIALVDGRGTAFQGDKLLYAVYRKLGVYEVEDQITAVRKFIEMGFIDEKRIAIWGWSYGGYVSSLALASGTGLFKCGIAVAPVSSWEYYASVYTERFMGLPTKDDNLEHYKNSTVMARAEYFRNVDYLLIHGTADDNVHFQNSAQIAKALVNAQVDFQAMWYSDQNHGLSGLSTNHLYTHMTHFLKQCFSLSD
Sequence of FAP enzyme activity in mouse plasma (P97321 24-761 limits assumed): as the sequence (P97321 24-761 limits assumed) above
Sequence of human dipeptidylpeptidase 9 (hDPP9) (Q86TI2 whole entry): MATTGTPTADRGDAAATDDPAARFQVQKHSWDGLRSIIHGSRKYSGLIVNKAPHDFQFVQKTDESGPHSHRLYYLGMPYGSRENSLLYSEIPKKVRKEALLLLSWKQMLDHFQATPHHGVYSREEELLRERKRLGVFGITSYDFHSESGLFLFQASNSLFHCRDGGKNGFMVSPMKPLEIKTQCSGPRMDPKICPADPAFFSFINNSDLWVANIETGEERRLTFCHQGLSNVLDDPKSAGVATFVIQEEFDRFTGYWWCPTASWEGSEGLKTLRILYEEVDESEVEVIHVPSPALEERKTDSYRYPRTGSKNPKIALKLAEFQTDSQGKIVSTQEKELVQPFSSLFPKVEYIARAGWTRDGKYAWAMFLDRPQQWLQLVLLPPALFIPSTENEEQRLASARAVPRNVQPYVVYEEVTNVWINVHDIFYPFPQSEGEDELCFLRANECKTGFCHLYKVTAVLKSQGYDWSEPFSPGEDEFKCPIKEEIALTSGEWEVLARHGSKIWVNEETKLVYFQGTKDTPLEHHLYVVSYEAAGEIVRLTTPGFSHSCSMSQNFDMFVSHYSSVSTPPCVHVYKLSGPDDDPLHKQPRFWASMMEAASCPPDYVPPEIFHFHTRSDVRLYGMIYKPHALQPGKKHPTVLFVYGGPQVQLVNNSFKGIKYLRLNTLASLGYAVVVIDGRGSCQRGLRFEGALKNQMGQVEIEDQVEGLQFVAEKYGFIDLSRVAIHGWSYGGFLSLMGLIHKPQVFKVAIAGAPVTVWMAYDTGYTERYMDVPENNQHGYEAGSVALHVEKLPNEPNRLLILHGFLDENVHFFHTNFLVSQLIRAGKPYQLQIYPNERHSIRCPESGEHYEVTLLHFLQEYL
Sequence of human dipeptidylpeptidase 8 (hDPP8) (Q6V1X1 whole entry): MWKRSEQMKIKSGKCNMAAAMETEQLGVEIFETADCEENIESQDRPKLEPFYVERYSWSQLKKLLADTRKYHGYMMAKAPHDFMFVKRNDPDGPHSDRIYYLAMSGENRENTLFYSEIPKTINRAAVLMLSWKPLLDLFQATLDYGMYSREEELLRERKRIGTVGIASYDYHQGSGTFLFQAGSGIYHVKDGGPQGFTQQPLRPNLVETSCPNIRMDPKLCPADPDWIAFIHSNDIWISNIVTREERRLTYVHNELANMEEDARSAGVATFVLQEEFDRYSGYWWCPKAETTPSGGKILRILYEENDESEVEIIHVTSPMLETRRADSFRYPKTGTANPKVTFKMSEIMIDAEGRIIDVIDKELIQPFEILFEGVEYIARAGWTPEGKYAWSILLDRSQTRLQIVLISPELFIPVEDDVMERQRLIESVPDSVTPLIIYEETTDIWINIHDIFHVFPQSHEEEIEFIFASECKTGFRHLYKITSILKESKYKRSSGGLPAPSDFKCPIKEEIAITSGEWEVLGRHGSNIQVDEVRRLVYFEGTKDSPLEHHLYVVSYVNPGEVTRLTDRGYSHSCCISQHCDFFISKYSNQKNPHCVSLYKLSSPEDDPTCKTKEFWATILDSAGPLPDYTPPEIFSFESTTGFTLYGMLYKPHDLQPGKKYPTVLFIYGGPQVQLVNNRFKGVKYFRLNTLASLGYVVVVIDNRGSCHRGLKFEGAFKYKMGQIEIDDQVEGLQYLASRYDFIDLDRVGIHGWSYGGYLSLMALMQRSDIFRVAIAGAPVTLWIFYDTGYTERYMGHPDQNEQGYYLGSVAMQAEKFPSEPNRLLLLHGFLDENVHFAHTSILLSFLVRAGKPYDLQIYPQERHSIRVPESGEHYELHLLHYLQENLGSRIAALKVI

| IC50 (hFAP) | IC50 (FAP Mouse Plasma) | IC50 [1] | IC50 [2] | IC50 (FAP Human Plasma) | IC50 [3] | solubility (Kinetic solubility) | hHep CLint (Human Hepatocytes (hHep)) | rHeps CLint (Rat Hepatocytes (rHep)) | hDPP8 Activity at Compound Concentration 10 μM [4] | microsomal CLint [5] | IC50 [6] | IC50 [7] | Structure (SMILES) |
| --- | --- | --- | --- | --- | --- | --- | --- | --- | --- | --- | --- | --- | --- |
| 0.65 nM | 7.1 nM | 0.18 nM | > 50 µM | 13 nM | 21 nM |  |  |  |  |  |  |  | N#C[C@@H]1C[C@@H]2C[C@@H]2N1C(=O)CNC(=O)c1ccnc2cc(Cl)ccc12 [Example 2, 7-Chloro-N-(2-((1S,3S,5S)-3-cyano-2-azabicyclo[3.1.0]hexan-2-yl)-2-oxoethyl)quinoline-4-carboxamide] |
| 0.81 nM | 1.9 nM | 0.33 nM | 12 µM | 3.6 nM |  | > 1000 µM | 1.6 μL/min/1E6 | 7.7 μL/min/1E6 | Not Active | 9.9 µL/min/mg | > 10 nM | > 10 nM | N#C[C@@H]1C[C@@H]2C[C@@H]2N1C(=O)CNC(=O)c1ccnc2cc(C(F)(F)F)ccc12 [Example 23, N-(2-((1S,3S,5S)-3-Cyano-2-azabicyclo[3.1.0]hexan-2-yl)-2-oxoethyl)-7-(trifluoromethyl)quinoline-4-carboxamide] |
